row,SMILES,melting point
1,CC(C)(C)CC(C)(C)c1cc(-c2ccccc2)c(O)c(-n2nc3ccc(-c4ccccc4)cc3n2)c1,123 to 125 °C
2,O=Cc1ccc(-c2ccc(OCc3ccccc3)cc2)cc1,122 to 123 °C
3,FC(F)(F)c1cc(I)cc(OCc2ccc3ccccc3c2)c1,65 to 66 °C
4,O=C(NCc1ccccc1)OCc1noc(-c2ccc(CN3CCCCCC3)s2)n1,129 to 130 °C
5,C=C1NC(NC(C)CC)=C(C(=O)OCC)C(NN)=C1C#N (centres undefined),120 to 121 °C
6,CN(C)C1(c2ccccc2)CCC(=CC(=O)NCCCCCc2c[nH]c3ccccc23)CC1 (centres undefined),68 to 72 °C
7,O=C(N1CCOCC1)C(c1ccccc1)(c1ccccc1)c1ncc[nH]1,113 °C
8,CCCCC(CC)COC(=O)CSc1cc2c(cc1SCC(=O)OCC(CC)CCCC)C(=O)c1cc3ccccc3cc1C2=O (centres undefined),75 to 80 °C
9,N#CC=C1CCN(c2ccc(N3C[C@H](CNC(=O)C(F)F)OC3=O)cc2F)CC1,162 to 164 °C
10,O=C1CCC(c2ccc(F)cc2)c2ccccc2N1 (centres undefined),209 to 212 °C
11,O=C(Nc1ccc(C(F)(F)F)cc1)NC1CCN(S(=O)(=O)c2ccccc2)CC1,248 to 252 °C
12,N#Cc1cnn2c1N(C(=O)CN1CCN(CC#CCN3CCCC3=O)CC1)CC=C2c1cccc(C(F)(F)F)c1,124 to 126 °C
13,CC(C)N(Cc1nc(-c2ncn3c2CN(C)C(=O)c2ccccc2-3)no1)C(C)C,117 to 119 °C
14,Nc1nnc(CCCCCBr)s1,128 to 130 °C
15,COc1nc(Cl)cnc1N,102 to 103 °C
16,c1c(NC23CC4CC(CC(C4)C2)C3)nc(N2CCNCC2)nc1NC12CC3CC(CC(C3)C1)C2,210 to 220 °C
17,O=C(C=CC(=O)OC(Cl)C(Cl)(Cl)Cl)OC(Cl)C(Cl)(Cl)Cl (centres undefined),144 °C

row,SMILES,melting point
1,Oc1c2c(nn1-c1ccccn1)CCc1cc(-c3ccc4c(c3)OCO4)ccc1-2,205 to 206 °C
2,O=S1(=O)CCN2C=CC=C(c3ccc(Oc4ccc(O)cc4)cc3)C2=N1,289 to 290 °C
3,CNC(=S)NS(=O)(=O)c1cc(CCNC(=O)c2cnc3ccccc3c2)ccc1OCCOCC(F)(F)F,115 to 120 °C
4,CC(C)OC(=O)N1CCC(c2nc3cc(-c4ccc(C(=O)NC5CC5)c(F)c4)ccc3o2)CC1,162 to 165 °C
5,Nc1nonc1-c1nc2ccccc2n1COc1ccccc1,171 to 173 °C
6,O=C(Nc1cccc(Br)c1)Oc1ccc2c(c1)CCCN2Cc1ccccc1,117 °C
7,COc1ccccc1-c1cc(C2CCN(Cc3ccc(Cl)cc3)CC2)n[nH]1,102 to 103 °C
8,COc1ccc(Cc2cc(C3CCCN(C(=O)c4ccc5c(c4)OCO5)C3)nc(N)n2)cc1 (centres undefined),125 to 127 °C
9,NNC(=O)c1ccc(OC(F)(F)C(F)(F)F)cc1,117 to 120 °C
10,COc1ccc(OCc2nc(N)c3nccnc3n2)cc1,238 to 240 °C
11,O=C1CCC(N2Cc3c(OCc4cc(CN5CCOCC5)no4)cccc3C2=O)C(=O)N1 (centres undefined),228 to 230 °C
12,CC1(C)Cc2ccoc2C(=O)N1,133 to 134 °C
13,COc1ccc2c(c1)CCC1C2CCC2(C)C1CCC2N(C)CCC(C)C (centres undefined),80 to 80.5 °C
14,CCC(=O)c1nc(C)c(C)nc1C,65 to 67 °C
15,CCCCCCCCS(=O)c1ccc(CC(N)(CO)CO)cc1 (centres undefined),80 to 82 °C
16,O=[N+]([O-])c1cc2c(Nc3ccc(F)c(Cl)c3)ncnc2cc1OCC1CC1,204 °C

# Continued, values first:
row,melting point,SMILES
1,198 to 200 °C,Cn1nnc2cccc(S(N)(=O)=O)c21
2,228 °C,CCc1nc(C)c(C(=O)Nc2cc(Oc3ccc4nc(NC(=O)C5CC5)cn4n3)ccc2F)o1
3,140 to 141 °C,CCCc1c(OCCCOc2ccc3ccc(OCC(=O)O)cc3c2C(C)=O)ccc(C(C)=O)c1O
4,147 to 149 °C,Nc1ccc(Nc2ccc([N+](=O)[O-])cc2S(=O)(=O)CCO)cc1
5,172 °C,CNc1cccc2c1C(=O)c1ccccc1C2=O
6,243 °C,O=C(O)CCC(=O)c1ccc2[nH]c3ncc(Cl)cc3c2c1
7,75.5 to 76 °C,CC(C)c1cc2c(cc1CCSCC(=O)O)OCO2
8,124 to 126 °C,CN1C(=O)C(C(=O)Nc2ccccc2)Sc2ccccc21 (centres undefined)
9,138 °C,COC(=O)C1=C(CCc2ccccc2)NC(CC(=O)N2CCN(C)CC2)=C(C(=O)OC)C1c1ccccc1Cl (centres undefined)
10,95 to 96.5 °C,COC1CN(c2ccc(NC(=O)OCc3ccccc3)cc2F)C1
11,235 to 237 °C,CC1Cc2c(N3CCCC3CO)c(F)cc3c(=O)c(C(=O)O)cn1c23 (centres undefined)
12,135 to 137 °C,COc1ccc(OCCCCl)c(C2(SC)Sc3ccccc3N(C)C2=O)c1 (centres undefined)
13,59 to 61 °C,CCCCc1ncc(CCN(C)C(Cc2ccccc2)C(=O)O)n1Cc1ccccc1Cl (centres undefined)
14,125 to 126 °C,COC(=O)c1ccc(C(=O)c2ccc(C)cc2)cc1
15,188 to 190 °C,CCS(=O)Cc1cccc(-c2nc(=O)c3ccccc3s2)n1 (centres undefined)
16,82 to 83 °C,O=C1OC(=O)C(c2ccccc2)=C1Cl
17,248 to 250 °C,O=C(OCc1ccncc1)c1cc2c(=O)n(Cc3ccccc3)c(=O)[nH]c2s1
18,306 to 308 °C,NC(=O)c1nc(-c2c(Cl)cc(C(F)(F)F)cc2Cl)[nH]c1C(N)=O

row,melting point,SMILES
1,> 270 °C,CSc1nc2nc3cc(C(F)(F)F)ccc3cc2[nH]1
2,130 to 131 °C,Cc1ccc2cccc(N(Cc3c(Cl)ccc([N+](=O)[O-])c3Cl)C(=O)OC(C)(C)C)c2n1
3,252 °C,Cc1ccc(N2C(=O)C(O)=C(C(=O)c3ccc(C(C)C)cc3)C2c2ccc(C(F)(F)F)cc2)nn1 (centres undefined)
4,221 °C,CCc1nc2cc(C(F)(F)F)c(Cl)cc2n1-c1ccc(CCOC(=O)NS(=O)(=O)c2cn(C)c(C)n2)cc1
5,268 to 271 °C,Cc1ccc2[nH]c(=O)n(C(C)(C)C(=O)O)c(=O)c2c1
6,166 to 168 °C,CCOC(=O)C1=C(C)NC(C)=C(C(=O)OCC)C1c1cc(Cl)ccc1Cl
7,277 to 278 °C,NC(=O)c1cn2c(nc1=O)CCC2
8,250 to 251 °C,Cc1ccc(Sc2c(SCc3ccccc3)cc(C(=O)O)cc2S(N)(=O)=O)cc1
9,180 °C,Cn1c2c(c3cccc(C(=O)O)c31)CCCC2
10,176 to 178 °C,Cc1ccc2c(=O)c3c(oc2c1)CCC(C#N)C3 (centres undefined)
11,174 to 175 °C,CC(C)(C)C(NC(=O)Cc1ccc(Cl)cc1)NC(=NC#N)Nc1cccnc1Cl (centres undefined)
12,77 to 78 °C,CC(C)Oc1cccc2c1O[C@@H](COS(C)(=O)=O)CC2
13,108 °C,CN(c1cccc2cc(-c3nccs3)[nH]c12)S(=O)(=O)N1CCCC1
14,168 to 171 °C,Cc1ccc(S(=O)(=O)ON=C(CCN2C(=O)c3ccccc3C2=O)n2nc(C)c(Cl)c2N)cc1
15,141 to 142 °C,COc1cccc(-c2cccc3c2OC(COS(=O)(=O)c2ccc(C)cc2)C3)c1 (centres undefined)
16,> 300 °C,COC[C@H]1CCCN1NC(=O)Nc1cccc2c1C(=O)c1c-2n[nH]c1-c1ccc(C(=O)N2CCN(C(=O)OC(C)(C)C)CC2)s1
17,204 °C,CC(C)n1cc(-c2nc(C#N)c(N)nc2-c2ccccc2)ccc1=O
18,139 to 141 °C,COC(=O)c1cccc([N+](=O)[O-])c1-c1ccc2ccccc2c1OC

# From a melting point compilation (Tetko et al.; mined from patent text by program, amines drawn as free bases though some values may be those of a salt)
